Data as given in the NIST ThermoML archive (doi:10.1016/j.jct.2012.07.022).
± gives the expanded uncertainty stated by the source.

Legend:
[1] = Liquid; for electrical conductivity: Alternating current cell with electrodes; for viscosity: Capillary tube (Ostwald / Ubbelohde) method; for mass density: Vibrating tube method; for speed of sound: Linear variable-path acoustic interferometer
[2] = refractive index (Na D-line) (dimensionless); settings: 101.33 kPa, Liquid, Standard Abbe refractometry

Nc1[nH]cnc2ncnc1-2 [6-amino-1H-purine]
[1], 101 kPa
Settings | electrical conductivity [S/m] | mass density [kg/m3] | viscosity [mPa·s]
298.15 K | 0.296 ± 0.006 | 1097.6 ± 0.3 | 128.5 ± 5.5
303.15 K | 0.382 ± 0.008 | 1094.5 ± 0.3 | 95.23 ± 4
308.15 K | 0.48 ± 0.01 | 1091.4 ± 0.3 | 72.42 ± 2.9
313.15 K | 0.594 ± 0.012 | 1088.4 ± 0.3 | 56.38 ± 2.3
318.15 K | 0.827 ± 0.017 | 1085.3 ± 0.3 | 44.79 ± 1.8
323.15 K | 0.986 ± 0.02 | 1082.3 ± 0.3 | 36.23 ± 1.5
328.15 K | – | 1079.3 ± 0.3 | 29.78 ± 1.2
333.15 K | – | 1076.2 ± 0.3 | 24.82 ± 1
338.15 K | – | 1073.3 ± 0.3 | 20.95 ± 0.85
343.15 K | – | 1070.3 ± 0.3 | 17.88 ± 0.72

CC(=O)[O-].CCCCn1cc[n+](C)c1 [1-butyl-3-methylimidazolium acetate]
[2]
Settings | refractive index
283.15 K | 1.49925 ± 0.00044
288.15 K | 1.49781 ± 0.00044
293.15 K | 1.49634 ± 0.00044
298.15 K | 1.49488 ± 0.00044
303.15 K | 1.49342 ± 0.00044
308.15 K | 1.49197 ± 0.00044
313.15 K | 1.49053 ± 0.00044
318.15 K | 1.48909 ± 0.00044
323.15 K | 1.48765 ± 0.00044
328.15 K | 1.48619 ± 0.00044
333.15 K | 1.48477 ± 0.00044
338.15 K | 1.48332 ± 0.00044
343.15 K | 1.48189 ± 0.00044

[1], 101.33 kPa
Settings | electrical conductivity [S/m] | mass density [kg/m3] | speed of sound [m/s] | viscosity [mPa·s]
283.15 K | 0.0131 ± 0.0003 | 1061.85 ± 0.65 | 1700 ± 3 | 1927 ± 130
288.15 K | 0.0215 ± 0.0004 | 1058.77 ± 0.65 | 1683 ± 3 | 1165 ± 74
293.15 K | 0.0331 ± 0.0007 | 1055.69 ± 0.65 | 1666 ± 3 | 736.6 ± 43
298.15 K | 0.049 ± 0.001 | 1052.63 ± 0.64 | 1650 ± 3 | 485.1 ± 26
303.15 K | 0.0699 ± 0.0014 | 1049.61 ± 0.64 | 1635 ± 3 | 330.9 ± 17
308.15 K | 0.0968 ± 0.0019 | 1046.6 ± 0.64 | 1621 ± 3 | 233 ± 11
313.15 K | 0.131 ± 0.003 | 1043.59 ± 0.63 | 1608 ± 3 | 168.7 ± 7.6
318.15 K | 0.172 ± 0.003 | 1040.59 ± 0.63 | 1595 ± 3 | 125.2 ± 5.4
323.15 K | 0.221 ± 0.004 | 1037.58 ± 0.63 | 1582 ± 3 | 95.05 ± 4
328.15 K | – | 1034.58 ± 0.63 | 1570 ± 3 | 73.63 ± 3
333.15 K | – | 1031.59 ± 0.62 | 1558 ± 3 | 58.09 ± 2.4
338.15 K | – | 1028.61 ± 0.62 | 1546 ± 3 | 46.57 ± 1.9
343.15 K | – | 1025.64 ± 0.62 | 1534 ± 3 | 37.91 ± 1.6

O=c1cc[nH]c(=O)[nH]1 [2,4(1H,3H)-pyrimidinedione]
[1], 101 kPa
Settings | electrical conductivity [S/m] | mass density [kg/m3] | viscosity [mPa·s]
298.15 K | 0.296 ± 0.006 | 1097.6 ± 0.3 | 128.5 ± 5.5
303.15 K | 0.382 ± 0.008 | 1094.5 ± 0.3 | 95.23 ± 4
308.15 K | 0.48 ± 0.01 | 1091.4 ± 0.3 | 72.42 ± 2.9
313.15 K | 0.594 ± 0.012 | 1088.4 ± 0.3 | 56.38 ± 2.3
318.15 K | 0.827 ± 0.017 | 1085.3 ± 0.3 | 44.79 ± 1.8
323.15 K | 0.986 ± 0.02 | 1082.3 ± 0.3 | 36.23 ± 1.5
328.15 K | – | 1079.3 ± 0.3 | 29.78 ± 1.2
333.15 K | – | 1076.2 ± 0.3 | 24.82 ± 1
338.15 K | – | 1073.3 ± 0.3 | 20.95 ± 0.85
343.15 K | – | 1070.3 ± 0.3 | 17.88 ± 0.72

CC(=O)[O-].CCn1cc[n+](C)c1 [1-ethyl-3-methylimidazolium acetate]
[2]
Settings | refractive index
283.15 K | 1.50423 ± 0.00036
288.15 K | 1.50283 ± 0.00036
293.15 K | 1.50144 ± 0.00036
298.15 K | 1.50001 ± 0.00036
303.15 K | 1.49861 ± 0.00036
308.15 K | 1.49718 ± 0.00036
313.15 K | 1.49577 ± 0.00036
318.15 K | 1.49436 ± 0.00036
323.15 K | 1.49295 ± 0.00036
328.15 K | 1.49154 ± 0.00036
333.15 K | 1.49015 ± 0.00036
338.15 K | 1.48876 ± 0.00036
343.15 K | 1.48734 ± 0.00036

[1], 101.33 kPa
Settings | electrical conductivity [S/m] | mass density [kg/m3] | speed of sound [m/s] | viscosity [mPa·s]
283.15 K | 0.114 ± 0.002 | 1107.56 ± 0.47 | 1778 ± 3 | 388.6 ± 20
288.15 K | 0.162 ± 0.003 | 1104.47 ± 0.47 | 1764 ± 3 | 258.4 ± 12
293.15 K | 0.222 ± 0.004 | 1101.36 ± 0.47 | 1750 ± 3 | 179.1 ± 8.1
298.15 K | 0.296 ± 0.006 | 1098.26 ± 0.47 | 1737 ± 3 | 128.5 ± 5.5
303.15 K | 0.382 ± 0.008 | 1095.16 ± 0.47 | 1725 ± 3 | 95.23 ± 4
308.15 K | 0.48 ± 0.01 | 1092.07 ± 0.46 | 1712 ± 3 | 72.42 ± 2.9
313.15 K | 0.594 ± 0.012 | 1089 ± 0.46 | 1700 ± 3 | 56.38 ± 2.3
318.15 K | 0.827 ± 0.017 | 1085.94 ± 0.46 | 1687 ± 3 | 44.79 ± 1.8
323.15 K | 0.986 ± 0.02 | 1082.9 ± 0.46 | 1675 ± 3 | 36.23 ± 1.5
328.15 K | – | 1079.87 ± 0.46 | 1664 ± 3 | 29.78 ± 1.2
333.15 K | – | 1076.84 ± 0.46 | 1652 ± 3 | 24.82 ± 1
338.15 K | – | 1073.83 ± 0.46 | 1640 ± 3 | 20.95 ± 0.85
343.15 K | – | 1070.83 ± 0.46 | 1628 ± 3 | 17.88 ± 0.72
